# Reference: US6740662B1, “Naphthyridine derivatives” (Yamanouchi Pharmaceutical Co., Ltd., priority 1999, dated 2004)
# Columns and labels:
# [1] = system: P450 drug metabolizing enzyme present in the liver microsome; assay: In vitro drug metabolism test using liver microsome; format: in vitro ADME; settings: human and rat liver microsome, test compound 20 ng/ml, 37° C., 10, 20 and 30 minutes, residual ratio
# Protocol: 1) Human and rat liver microsome suspension (human microsome: Xenotech, rat microsome: Charles River) was diluted with 100 mM Na-K phosphate buffer (pH 7.4) to a protein concentration of 0.5 mg/ml. To a 100 μl portion of this suspension were added 2 μl of a test compound solution (a 10 μg/ml acetonitrile solution), 500 μl of 200 mM Na-K phosphate buffer (pH 7.4), 50 μl of 1 mM EDTA-NaOH (pH 7.4) and 200 μl of purified water, thereby preparing a substrate solution (concentration in the reaction solution: liver microsome (as the protein content) 0.05 mg/ml, test compound 20 ng/ml, 100 mM Na-K phosphate buffer, 0.1 mM EDTA-NaOH).
# 2) An NADPH production system was prepared by mixing 42 mg of NADP, 5 ml of 100 mM […] (G6P) and 5 ml of 100 mM MgCl2, and adding 57 μl of G6P dehydrogenase (about 1750 U/5 mg/ml) to the mixture. This was heated at 37° C. for 5 minutes and then ice-cooled until its use.
# 3) A 900 μl portion of the substrate solution was pre-incubated at 37° C. for 5 minutes, and then 100 μl of the NADPH production system was added thereto, following by reaction at 37° C. for 10, 20 and 30 minutes. After termination of the reaction by adding 2 ml of ethyl acetate, the whole was ice-cooled. In this connection, a control sample was prepared by adding 100 μl of the NADPH production system after adding 2 ml of ethyl acetate (0 minute reaction).
# 4) To the reaction solution was added 100 μl of an internal standard substance having a predetermined concentration (an acetonitrile solution), 1 ml of 0.5 M phosphoric acid and 2 ml of ethyl acetate, followed by shaking for 10 minutes. After 10 minutes of centrifugation at 2,500 rpm, the ethyl acetate layer was separated and evaporated to dryness, and the residue was dissolved in 100 μl of an HPLC mobile phase solvent. The test compound was eluted after about 12 minutes, and the internal standard substance after about 16 minutes, under the following conditions. (HPLC measuring conditions mobile phase: acetonitrile/20 mM ammonium acetate=2:3 (v/v), column: Discovery RP Amide C16, 4.6×35 mm (SUPELCO), flow rate: 0.8 ml/min., detection: UV 286 nm)
# 5) A ratio (residual ratio) of the peak height ratio after 10, 20 or 30 minutes of the reaction to the peak height ratio of each test compound in the control (peak height ratio to the internal standard substance) was calculated.
# [2] = Oral absorbability and pharmacokinetic profile evaluation test using type IV PDE inhibitory activity as the index; format: in vivo; settings: orally administered to male Fisher rat at 3 mg/kg; plasma type IV PDE inhibitory activity as index; in comparison with a comparative compound
# Protocol: Test Example 3. Oral absorbability and pharmacokinetic profile evaluation test using type IV PDE inhibitory activity as the index
# The following assay was carried out in order to evaluate oral absorbability and pharmacokinetic profiles of the type IV PDE-inhibiting compounds of the invention.
# 1) Each test compound suspended in purified water containing 0.5% methyl cellulose was orally administered to a seven-week-old male Fisher rat at a dose of 3 mg/kg. In the control group, a solvent (0.5% methyl cellulose in purified water, 3 ml/kg) was administered in the same manner. After the oral administration, blood samples were periodically collected in the presence of heparin from the caudal vein of each rat under ether anesthesia, and plasma was prepared in the usual way.
# 2) The plasma prepared from each rat administered with the test compound or solvent was added to the type IV PDE measuring system shown in the above Test Example 1 so as to be a final concentration of 0.1%, and the type IV PDE inhibitory activity was measured.
SMILES,metabolism by the P450 drug metabolizing enzyme present in the liver microsome [1],melting point,oral absorbability and metabolic stability [2]
"CCn1c(=O)c(CCC(=O)O)c(-c2cccc(Cl)c2)c2ccc(C)nc21 [Example 2, 3-[4-(3-chlorophenyl)-1-ethyl-7-methyl-2-oxo-1,2-dihydro-1,8-naphthyridin-3-yl]propanoic acid]",hardly metabolized,,good oral absorbability and metabolic stability
"CCn1c(=O)c(-c2cccc(C(=O)O)c2)c(-c2cccc(Cl)c2)c2ccc(C)nc21 [Example 21, 3-[4-(3-chlorophenyl)-1-ethyl-7-methyl-2-oxo-1,2-dihydro-1,8-naphthyridin-3-yl]benzoic acid]",hardly metabolized,254 to 256 °C,good oral absorbability and metabolic stability
"CCn1c(=O)c(C2CCNCC2)c(-c2cccc(Cl)c2)c2ccc(C)nc21 [Example 28, 4-(3-chlorophenyl)-1-ethyl-7-methyl-3-(piperidin-4-yl)-1,8-naphthyridin-2(1H)-one monofumarate]",hardly metabolized,,good oral absorbability and metabolic stability
"CCn1c(=O)c(CCC(=O)O)c(-c2cccc(Cl)c2)c2ccc(Cl)nc21 [Example 41, 3-[7-chloro-4-(3-chlorophenyl)-1-ethyl-2-oxo-1,2-dihydro-1,8-naphthyridin-3-yl]propanoic acid]",hardly metabolized,197 to 199 °C,good oral absorbability and metabolic stability
"CCn1c(=O)c(CCC(=O)O)c(-c2cccc(Cl)c2)c2ccc(C=NO)nc21 [Example 43, 3-[4-(3-chlorophenyl)-1-ethyl-7-hydroxyiminomethyl-2-oxo-1,2-dihydro-1,8-naphthyridin-3-yl]propanoic acid]",hardly metabolized,234 to 238 °C,good oral absorbability and metabolic stability

# More lines, main results first:
metabolism by the P450 drug metabolizing enzyme present in the liver microsome [1],melting point,SMILES,oral absorbability and metabolic stability [2]
hardly metabolized,155 to 156 °C,"CCn1c(=O)c(CCC(=O)O)c(C2CCCCC2)c2ccc(C)nc21 [Example 47, 3-(4-cyclohexyl-1-ethyl-7-methyl-2-oxo-1,2-dihydro-1,8-naphthyridin-3-yl)propanoic acid]",good oral absorbability and metabolic stability
hardly metabolized,174 to 175 °C,"CCn1c(=O)c(CCC(=O)O)c(-c2cccc(C)c2)c2ccc(C)nc21 [Example 77, 3-[1-ethyl-7-methyl-4-(3-methylphenyl)-2-oxo-1,2-dihydro-1,8-naphthyridin-3-yl]propanoic acid]",good oral absorbability and metabolic stability
hardly metabolized,207 to 209 °C,CCn1c(=O)c(CCc2nnn[nH]2)c(C2CCCCC2)c2ccc(C)nc21 [Example 79],good oral absorbability and metabolic stability
